System: P. aeruginosa
Assay: Antibacterial activity (MIC) against P. aeruginosa
Assay type: cell-based, Pseudomonas aeruginosa
Experimental: In this example, the antibacterial activity of exemplary multifunctional copolymeric nanoparticles against Gram-negative and Gram-positive strains, including P. aeruginosa, E. coli, S. aureus, and Enterococcus, were investigated based on their minimum bactericidal concentration (MBC) and minimum inhibitory concentration (MIC). Reaction time for synthesis of exemplary multifunctional copolymeric nanoparticles (AX) was varied from 1 hour to 72 hours to fine-tune the antibacterial activity of the exemplary multifunctional copolymeric nanoparticles. FIG. 11 illustrates a chart 1100 for the antibacterial activity of exemplary multifunctional copolymeric nanoparticles synthesized in different reaction times (1, 3, 8, 24, and 72 hours), consistent with one or more exemplary embodiments of the present disclosure.

gentamicin was tested, and the MIC was > 64 µg/mL.

— patent publication US20240102051A1, “MULTIFUNCTIONAL COPOLYMERIC NANOPARTICLE” (Iran University of Medical Sciences, priority 2021, published 2024)
